ChEMBL document CHEMBL3758098, “3-(Dipropylamino)-5-hydroxybenzofuro[2,3-f]quinazolin-1(2H)-one (DPA-HBFQ-1) plays an inhibitory role on breast cancer cell growth and progression” (Eur J Med Chem, 2016)
The source made the active and inactive calls. The rule behind the calls is not given here.

How the values were obtained:
MCF7 = test: Cytotoxicity against human MCF7 cells assessed as growth inhibition at 1 uM after 5 days by MTT assay relative to vehicle-treated control; assay type: functional; details: MCF7, 120 h, read-out: GI
MDA-MB-231 = test: Cytotoxicity against human MDA-MB-231 cells assessed as growth inhibition at 1 uM after 5 days by MTT assay relative to vehicle-treated control; assay type: functional
[1] = Cytotoxicity against human MCF10A cells assessed as growth inhibition at 1 uM after 5 days by MTT assay relative to vehicle-treated control; assay type: cell-based; details: mcf-10a, 120 h

| SMILES | inhibition of growth at 1 µM (MCF7) [%] | growth inhibition (GI) (MDA-MB-231) | Activity [1] |
| --- | --- | --- | --- |
| CCCCN(CCCC)c1nc2c(OC)cc3c4ccccc4oc3c2c(=O)[nH]1 | 25 | Active | Non-toxic |
| CCN(CC)c1nc2c(OC)cc3c4ccccc4oc3c2c(=O)[nH]1 | 15 | Active | Non-toxic |
